Test results from EP0129932A1, “N,N,N',N'-tetra (hydroxyethyl)-5-acetylamino-2,4,6-triiodoisophtaloyldiglycinamide, a process for the preparation of said compound and an X-ray contrast agent containing said compound” (DAGRA N.V., priority 1983, dated 1985).
Values after ≈ are worked out from the molar mass of the structure shown.

Legend:
mice = assay: intravenous toxicity in mice; assay type: in vivo; details: solution of 300 mg I/ml, injection rate 20 g 1/kg/min
Method: The intravenous toxicity was determined in mice, after administration of a solution of 300 mg I/ml at an injection rate of 20 g 1/kg/min.

physchem = details: water

CC(=O)Nc1c(I)c(C(=O)NCC(=O)N(CCO)CCO)c(I)c(C(=O)NCC(=O)N(CCO)CCO)c1I [The compound]
LD50 (mice): 15.4 g I/kg
solubility (physchem): ~3000 mg/mL (≈ 3370 mM)
